Measured values reported in the CheMixHub viscosity set.
Values joined by “and” are separate entries in the source; they are usually repeats but may differ in a detail not shown here. Equal entries are not always repeated. ± gives the uncertainty stated by the source.

Assay: xn = mol fraction of the nth substance listed

In the case of CN(C)C=O + O, the viscosity (293.15 K, 101 kPa, x1 = 0.0254) is reported as 1.471 ± 0.26 mPa·s, the viscosity (293.15 K, 101 kPa, x1 = 0.0555) is reported as 1.784 ± 0.29 mPa·s and the viscosity (293.15 K, 101 kPa, x1 = 0.0915) is reported as 2.173 ± 0.34 mPa·s. For the same molecule, the viscosity (293.15 K, 101 kPa, x1 = 0.1355) was 2.435 ± 0.36 mPa·s, the viscosity (293.15 K, 101 kPa, x1 = 0.1904) was 2.755 ± 0.4 mPa·s and the viscosity (293.15 K, 101 kPa, x1 = 0.2608) was 2.969 ± 0.42 mPa·s. The viscosity (293.15 K, 101 kPa, x1 = 0.2921) was 2.981 ± 0.43 mPa·s, the viscosity (293.15 K, 101 kPa, x1 = 0.304) was 3.018 ± 0.43 mPa·s and the viscosity (293.15 K, 101 kPa, x1 = 0.3199) was 2.973 ± 0.42 mPa·s. The viscosity (293.15 K, 101 kPa, x1 = 0.3544) was 2.937 ± 0.42 mPa·s, the viscosity (293.15 K, 101 kPa, x1 = 0.4137) was 2.705 ± 0.39 mPa·s and the viscosity (293.15 K, 101 kPa, x1 = 0.4848) was 2.515 ± 0.37 mPa·s. For the same molecule, the viscosity (293.15 K, 101 kPa, x1 = 0.5714) was 2.002 ± 0.32 mPa·s, the viscosity (293.15 K, 101 kPa, x1 = 0.6792) was 1.674 ± 0.28 mPa·s and the viscosity (293.15 K, 101 kPa, x1 = 0.8171) was 1.276 ± 0.24 mPa·s. The viscosity (293.15 K, 101 kPa, x2 = 0.1) was 0.9649 ± 0.0065 mPa·s and 0.9619 ± 0.013 mPa·s, the viscosity (293.15 K, 101 kPa, x2 = 0.2) was 1.129 ± 0.0076 mPa·s and 1.125 ± 0.015 mPa·s and 1.65 ± 0.4 mPa·s and the viscosity (293.15 K, 101 kPa, x2 = 0.3) was 1.357 ± 0.009 mPa·s and 1.351 ± 0.018 mPa·s. For the same molecule, the viscosity (293.15 K, 101 kPa, x2 = 0.4) was 1.674 ± 0.011 mPa·s and 1.67 ± 0.022 mPa·s and 2.25 ± 0.53 mPa·s, the viscosity (293.15 K, 101 kPa, x2 = 0.5) was 2.177 ± 0.014 mPa·s and 2.088 ± 0.028 mPa·s and the viscosity (293.15 K, 101 kPa, x2 = 0.6) was 2.564 ± 0.017 mPa·s and 2.556 ± 0.034 mPa·s. For the same molecule, the viscosity (293.15 K, 101 kPa, x2 = 0.7) was 2.885 ± 0.018 mPa·s and 2.875 ± 0.038 mPa·s, the viscosity (293.15 K, 101 kPa, x2 = 0.8) was 2.761 ± 0.018 mPa·s and 2.754 ± 0.036 mPa·s and the viscosity (293.15 K, 101 kPa, x2 = 0.9) was 2.019 ± 0.013 mPa·s and 2.015 ± 0.027 mPa·s. The viscosity (293.15 K, 101 kPa, x2 = 0.92) was 1.818 ± 0.012 mPa·s and 1.813 ± 0.024 mPa·s, the viscosity (293.15 K, 101 kPa, x2 = 0.94) was 1.622 ± 0.011 mPa·s and 1.616 ± 0.021 mPa·s and the viscosity (293.15 K, 101 kPa, x2 = 0.96) was 1.408 ± 0.0094 mPa·s and 1.403 ± 0.019 mPa·s. For the same molecule, the viscosity (293.15 K, 101 kPa, x2 = 0.98) was 1.203 ± 0.0081 mPa·s and 1.2 ± 0.016 mPa·s, the viscosity (293.15 K, 101.33 kPa, x1 = 0.0217) was 1.225 ± 0.038 mPa·s and the viscosity (293.15 K, 101.33 kPa, x1 = 0.0466) was 1.483 ± 0.045 mPa·s. For the same molecule, the viscosity (293.15 K, 101.33 kPa, x1 = 0.0989) was 2.011 ± 0.06 mPa·s, the viscosity (293.15 K, 101.33 kPa, x1 = 0.1478) was 2.357 ± 0.07 mPa·s and the viscosity (293.15 K, 101.33 kPa, x1 = 0.196) was 2.65 ± 0.078 mPa·s. The viscosity (293.15 K, 101.33 kPa, x1 = 0.2481) was 2.888 ± 0.084 mPa·s, the viscosity (293.15 K, 101.33 kPa, x1 = 0.2859) was 2.908 ± 0.085 mPa·s and the viscosity (293.15 K, 101.33 kPa, x1 = 0.3728) was 2.707 ± 0.08 mPa·s. It also gave a viscosity (293.15 K, 101.33 kPa, x1 = 0.4919) of 2.262 ± 0.067 mPa·s, a viscosity (293.15 K, 101.33 kPa, x1 = 0.5936) of 1.748 ± 0.053 mPa·s and a viscosity (293.15 K, 101.33 kPa, x1 = 0.7991) of 1.184 ± 0.037 mPa·s. The viscosity (293.15 K, 101.33 kPa, x1 = 0.8795) was 1.073 ± 0.034 mPa·s, the viscosity (298.15 K, 101 kPa, x2 = 0.1) was 0.9018 ± 0.0061 mPa·s and 0.8984 ± 0.012 mPa·s and the viscosity (298.15 K, 101 kPa, x2 = 0.3) was 1.233 ± 0.0082 mPa·s and 1.232 ± 0.016 mPa·s. The viscosity (298.15 K, 101 kPa, x2 = 0.4) was 1.508 ± 0.01 mPa·s and 1.503 ± 0.02 mPa·s, the viscosity (298.15 K, 101 kPa, x2 = 0.5) was 1.853 ± 0.012 mPa·s and 1.847 ± 0.025 mPa·s and the viscosity (298.15 K, 101 kPa, x2 = 0.6) was 2.226 ± 0.015 mPa·s and 2.225 ± 0.029 mPa·s. For the same molecule, the viscosity (298.15 K, 101 kPa, x2 = 0.7) was 2.477 ± 0.016 mPa·s and 2.469 ± 0.032 mPa·s, the viscosity (298.15 K, 101 kPa, x2 = 0.8) was 2.345 ± 0.031 mPa·s and the viscosity (298.15 K, 101 kPa, x2 = 0.9) was 1.746 ± 0.011 mPa·s and 1.744 ± 0.023 mPa·s. The viscosity (298.15 K, 101 kPa, x2 = 0.92) was 1.583 ± 0.01 mPa·s and 1.576 ± 0.021 mPa·s, the viscosity (298.15 K, 101 kPa, x2 = 0.94) was 1.412 ± 0.0094 mPa·s and 1.408 ± 0.019 mPa·s and the viscosity (298.15 K, 101 kPa, x2 = 0.96) was 1.234 ± 0.016 mPa·s. For the same molecule, the viscosity (298.15 K, 101 kPa, x2 = 0.98) was 1.065 ± 0.0072 mPa·s and 1.063 ± 0.014 mPa·s, the viscosity (302.15 K, 101 kPa, x1 = 0.0254) was 1.266 ± 0.23 mPa·s and the viscosity (302.15 K, 101 kPa, x1 = 0.0555) was 1.535 ± 0.26 mPa·s. The viscosity (302.15 K, 101 kPa, x1 = 0.0915) was 1.856 ± 0.3 mPa·s, the viscosity (302.15 K, 101 kPa, x1 = 0.1355) was 2.071 ± 0.32 mPa·s and the viscosity (302.15 K, 101 kPa, x1 = 0.1904) was 2.333 ± 0.35 mPa·s. The viscosity (302.15 K, 101 kPa, x1 = 0.2608) was 2.542 ± 0.38 mPa·s, the viscosity (302.15 K, 101 kPa, x1 = 0.2921) was 2.58 ± 0.38 mPa·s and the viscosity (302.15 K, 101 kPa, x1 = 0.304) was 2.604 ± 0.38 mPa·s. For the same molecule, the viscosity (302.15 K, 101 kPa, x1 = 0.3199) was 2.572 ± 0.38 mPa·s, the viscosity (302.15 K, 101 kPa, x1 = 0.3544) was 2.526 ± 0.37 mPa·s and the viscosity (302.15 K, 101 kPa, x1 = 0.4137) was 2.327 ± 0.35 mPa·s. The viscosity (302.15 K, 101 kPa, x1 = 0.4848) was 2.201 ± 0.34 mPa·s, the viscosity (302.15 K, 101 kPa, x1 = 0.5714) was 1.812 ± 0.3 mPa·s and the viscosity (302.15 K, 101 kPa, x1 = 0.6792) was 1.533 ± 0.26 mPa·s. For the same molecule, the viscosity (302.15 K, 101 kPa, x1 = 0.8171) was 1.176 ± 0.22 mPa·s, the viscosity (303.15 K, 101 kPa, x2 = 0.1) was 0.8402 ± 0.0058 mPa·s and 0.8389 ± 0.011 mPa·s and the viscosity (303.15 K, 101 kPa, x2 = 0.2) was 0.9593 ± 0.0065 mPa·s and 0.9567 ± 0.013 mPa·s. For the same molecule, the viscosity (303.15 K, 101 kPa, x2 = 0.3) was 1.137 ± 0.0076 mPa·s and 1.122 ± 0.015 mPa·s, the viscosity (303.15 K, 101 kPa, x2 = 0.4) was 1.354 ± 0.009 mPa·s and 1.352 ± 0.018 mPa·s and the viscosity (303.15 K, 101 kPa, x2 = 0.5) was 1.641 ± 0.011 mPa·s and 1.639 ± 0.022 mPa·s. For the same molecule, the viscosity (303.15 K, 101 kPa, x2 = 0.6) was 1.943 ± 0.013 mPa·s and 1.939 ± 0.026 mPa·s, the viscosity (303.15 K, 101 kPa, x2 = 0.7) was 2.134 ± 0.014 mPa·s and 2.132 ± 0.028 mPa·s and the viscosity (303.15 K, 101 kPa, x2 = 0.8) was 2.026 ± 0.013 mPa·s and 2.02 ± 0.027 mPa·s.
